The source of these data is patent publication US11866450B2, “Modulators of Cystic Fibrosis Transmembrane Conductance regulator, pharmaceutical compositions, methods of treatment, and process for making the modulators” (priority 2018, dated 2024).

The experiment has as its target CFTR-mediated chloride transport (Homo sapiens, UniProt P13569). Format: cell-based. Conditions: enteroid cells incubated with test compound 18-24 hours, acute 10 μM forskolin and 300 nM Compound III; for Max. Activity: % of chloride transport with 3 μM Compound A, 3 μM Compound II and 300 nM acute Compound III triple combination control. Summed up:
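Membrane-potential fluorescence AUC over 15 min quantified CFTR chloride transport after acute forskolin (10 μM), IBMX (100 μM) and Compound III (300 nM) in chloride-free buffer. Human enteroid cells were pretreated with compound for 18–24 h; % Activity is relative to 3 μM Compound A + 3 μM Compound II + 300 nM Compound III.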

CFTR-mediated chloride transport, sequence (P13569 whole entry, looked up): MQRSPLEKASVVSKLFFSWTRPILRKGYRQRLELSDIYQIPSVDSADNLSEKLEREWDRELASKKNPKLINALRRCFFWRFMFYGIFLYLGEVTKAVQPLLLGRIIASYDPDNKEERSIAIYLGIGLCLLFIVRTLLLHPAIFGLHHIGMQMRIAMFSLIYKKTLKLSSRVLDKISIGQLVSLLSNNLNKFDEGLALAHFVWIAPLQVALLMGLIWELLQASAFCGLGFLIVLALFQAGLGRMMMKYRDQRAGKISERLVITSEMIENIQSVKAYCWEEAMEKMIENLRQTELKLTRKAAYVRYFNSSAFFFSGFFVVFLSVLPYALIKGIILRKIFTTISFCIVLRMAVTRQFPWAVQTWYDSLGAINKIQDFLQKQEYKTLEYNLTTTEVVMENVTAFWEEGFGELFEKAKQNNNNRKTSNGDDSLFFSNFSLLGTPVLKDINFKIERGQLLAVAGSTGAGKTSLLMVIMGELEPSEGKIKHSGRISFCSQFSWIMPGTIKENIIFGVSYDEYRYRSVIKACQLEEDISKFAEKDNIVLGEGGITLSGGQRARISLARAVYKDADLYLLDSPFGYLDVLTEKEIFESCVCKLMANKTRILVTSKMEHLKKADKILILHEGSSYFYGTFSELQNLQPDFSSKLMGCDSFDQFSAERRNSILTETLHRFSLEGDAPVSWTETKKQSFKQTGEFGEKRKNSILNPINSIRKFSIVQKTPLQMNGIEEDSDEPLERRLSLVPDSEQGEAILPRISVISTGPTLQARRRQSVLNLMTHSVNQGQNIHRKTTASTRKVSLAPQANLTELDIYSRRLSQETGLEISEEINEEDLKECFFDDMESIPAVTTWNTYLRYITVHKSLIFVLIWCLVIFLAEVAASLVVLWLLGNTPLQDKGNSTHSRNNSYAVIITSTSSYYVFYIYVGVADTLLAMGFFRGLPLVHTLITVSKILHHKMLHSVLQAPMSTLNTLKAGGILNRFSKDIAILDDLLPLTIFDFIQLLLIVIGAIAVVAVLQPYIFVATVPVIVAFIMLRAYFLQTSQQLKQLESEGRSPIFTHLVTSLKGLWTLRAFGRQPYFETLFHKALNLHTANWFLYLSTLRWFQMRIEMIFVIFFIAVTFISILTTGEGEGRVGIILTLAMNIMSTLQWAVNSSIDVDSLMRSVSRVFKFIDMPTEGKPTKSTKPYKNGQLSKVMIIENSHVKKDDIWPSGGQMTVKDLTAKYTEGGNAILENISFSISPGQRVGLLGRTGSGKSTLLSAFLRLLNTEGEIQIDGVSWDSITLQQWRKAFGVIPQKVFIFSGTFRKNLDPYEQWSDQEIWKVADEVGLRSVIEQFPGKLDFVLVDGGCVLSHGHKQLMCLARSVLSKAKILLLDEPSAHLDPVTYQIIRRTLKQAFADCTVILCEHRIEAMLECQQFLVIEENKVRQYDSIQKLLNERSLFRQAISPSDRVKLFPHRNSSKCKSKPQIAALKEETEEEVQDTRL

Regarding `CN1CCCCC2CN(c3nc(-n4ccc(OCCC5(C(F)(F)F)CC5)n4)ccc3C(=O)NS(=O)(=O)c3ccc1nc3)C(C)(C)C2` (stereo not drawn) [Compound 132, 12,12,19-trimethyl-8-(3-{2-[1-(trifluoromethyl)cyclopropyl]ethoxy}-1H-pyrazol-1-yl)-2λ^6-thia-3,9,11,19,21-pentaazatetracyclo[18.2.2.111,14.05,10]pentacosa-1(23),5,7,9,20(24),21-hexaene-2,2,4-trione], the concentration for a half-maximal effect (EC50) (in general, the concentration at which the effect is half-maximal) was below 1000 nM and the “Max. Activity” value is “++ (++ is 30-60%)”.

For the compound `Cc1ccc2nc1S(=O)(=O)NC(=O)c1ccc(-n3ccc(OCCC4(C(F)(F)F)CC4)n3)nc1N1C[C@H](CCCN2)CC1(C)C` (single isomer, unassigned) [Compound 148, 12,12,22-trimethyl-8-(3-{2-[1-(trifluoromethyl)cyclopropyl]ethoxy}-1H-pyrazol-1-yl)-2λ^6-thia-3,9,11,18,23-pentaazatetracyclo[17.3.1.111,14.05,10]tetracosa-1(23),5(10),6,8,19,21-hexaene-2,2,4-trione], the EC50 is above 3000 nM and the “Max. Activity” value is “+ (+ is <30%)”.

As to `CC1(C)C[C@H]2CCCCOc3ccc(cn3)S(=O)(=O)NC(=O)c3ccc(-n4ccc(OCCC5(C(F)(F)F)CC5)n4)nc3N1C2` (single isomer, unassigned) [Compound 103, 12,12-dimethyl-8-(3-{2-[1-(trifluoromethyl)cyclopropyl]ethoxy}-1H-pyrazol-1-yl)-19-oxa-2λ^6-thia-3,9,11,21-tetraazatetracyclo[18.2.2.111,14.05,10]pentacosa-1(23),5,7,9,20(24),21-hexaene-2,2,4-trione], the EC50 is below 1000 nM and the “Max. Activity” value is “++ (++ is 30-60%)”.

On to `CC1(C)C[C@@H]2CCCNc3cccc(n3)S(=O)(=O)NC(=O)c3ccc(N4CC[C@H](CCCC5(C(F)(F)F)CC5)C4=O)nc3N1C2` (single isomer, unassigned) [Compound 174], for which the half-maximal effective concentration (EC50) was below 1000 nM and the “Max. Activity” value was “+++ (+++ is >60%)”.

For `CC1(C)C[C@H]2CCCn3ccc(n3)S(=O)(=O)NC(=O)c3ccc(N4CC[C@H](OCCC5(C(F)(F)F)CC5)C4=O)nc3N1C2` (single isomer, unassigned) [Compound 191, 20,20-Dimethyl-4-(2-oxo-3-{2-[1-(trifluoromethyl)cyclopropyl]ethoxy}pyrrolidin-1-yl)-10λ^6-thia-1,3,9,14,22-pentaazatetracyclo[16.2.1.111,14.02,7]docosa-2,4,6,11(22),12-pentaene-8,10,10-trione], the EC50 is below 1000 nM and the “Max. Activity” value was “++ (++ is 30-60%)”.

In the case of `CC1(C)C[C@H]2C[C@@H](F)CNc3cccc(n3)S(=O)(=O)NC(=O)c3ccc(-n4ccc(OCCC5C6(CC6)C56CC6)n4)nc3N1C2` (single isomer, unassigned) [Compound 308, 8-[3-(2-{dispiro[2.0.2.1]heptan-7-yl}ethoxy)-1H-pyrazol-1-yl]-16-fluoro-12,12-dimethyl-2λ^6-thia-3,9,11,18,23-pentaazatetracyclo[17.3.1.111,14.05,10]tetracosa-1(22),5,7,9,19(23),20-hexaene-2,2,4-trione], the EC50 is below 1000 nM and the “Max. Activity” value is “+ (+ is <30%)”.

Turning to `CC1(C)C[C@@H]2CCCNc3cccc(n3)S(=O)(=O)NC(=O)c3ccc(N4CCN(C56CC7CC(CC(C7)C5)C6)C4=O)nc3N1C2` [Compound 230, (14S)-8-[3-(Adamantan-1-yl)-2-oxoimidazolidin-1-yl]-12,12-dimethyl-2λ^6-thia-3,9,11,18,23-pentaazatetracyclo[17.3.1.111,14.05,10]tetracosa-1(22),5,7,9,19(23),20-hexaene-2,2,4-trione], the EC50 is below 1000 nM and the “Max. Activity” value is “+ (+ is <30%)”.

Regarding `CC1(C)C[C@H]2CCCCc3ccc(cc3)S(=O)(=O)NC(=O)c3ccc(-n4ccc(OCCC5(C(F)(F)F)CC5)n4)nc3N1C2` (single isomer, unassigned) [Compound 55, 12,12-Dimethyl-8-(3-{2-[1-(trifluoromethyl)cyclopropyl]ethoxy}-1H-pyrazol-1-yl)-2λ^6-thia-3,9,11-triazatetracyclo[17.2.2.111,14.05,10]tetracosa-1(21),5,7,9,19,22-hexaene-2,2,4-trione], the concentration for a half-maximal effect (EC50) is below 1000 nM and the “Max. Activity” value is given as “+++ (+++ is >60%)”.

With `CC1(C)C[C@@H]2CN1c1nc(-n3ccc(OCCC4C5(CC5)C45CC5)n3)ccc1C(=O)NS(=O)(=O)c1cccc(n1)NCC(F)(F)C2` (single isomer, unassigned) [Compound 304, 8-[3-(2-{dispiro[2.0.2.1]heptan-7-yl}ethoxy)-1H-pyrazol-1-yl]-16,16-difluoro-12,12-dimethyl-2λ^6-thia-3,9,11,18,23-pentaazatetracyclo[17.3.1.111,14.05,10]tetracosa-1(22),5,7,9,19(23),20-hexaene-2,2,4-trione], the EC50 was below 1000 nM and the “Max. Activity” value was “+++ (+++ is >60%)”.

Turning to `CC1(C)C[C@H]2CCNc3cccc(n3)S(=O)(=O)NC(=O)c3ccc(-n4ccc(OCCCC5(C(F)(F)F)CC5)n4)nc3N1C2` (single isomer, unassigned) [Compound 234, 7,7-dimethyl-11-(3-{3-[1-(trifluoromethyl)cyclopropyl]propoxy}-1H-pyrazol-1-yl)-17λ^6-thia-2,8,10,16,22-pentaazatetracyclo[16.3.1.15,8.09,14]tricosa-1(22),9,11,13,18,20-hexaene-15,17,17-trione], the concentration giving a half-maximal response (EC50) was below 1000 nM and the “Max. Activity” value is reported as “++ (++ is 30-60%)”.

In the case of `CC1(C)C[C@H]2CCNc3cccc(n3)S(=O)(=O)NC(=O)c3ccc(-n4ccc(OCCCC5(C(F)(F)F)CC5)n4)nc3N1C2` (single isomer, unassigned) [Compound 235, 7,7-dimethyl-11-(3-{3-[1-(trifluoromethyl)cyclopropyl]propoxy}-1H-pyrazol-1-yl)-17λ^6-thia-2,8,10,16,22-pentaazatetracyclo[16.3.1.15,8.09,14]tricosa-1(22),9,11,13,18,20-hexaene-15,17,17-trione], the 50% effective concentration (EC50) is below 1000 nM and the “Max. Activity” value is “+++ (+++ is >60%)”.

Consider `CC1(C)CC[C@H]2CNc3cccc(n3)S(=O)(=O)NC(=O)c3ccc(-n4ccc(OCCC5(C(F)(F)F)CC5)n4)nc3N21` (single isomer, unassigned) [Compound 50, 7,7-dimethyl-11-(3-{2-[1-(trifluoromethyl)cyclopropyl]ethoxy}-1H-pyrazol-1-yl)-17λ^6-thia-2,8,10,16,22-pentaazatetracyclo[16.3.1.04,8.09,14]docosa-1(22),9,11,13,18,20-hexaene-15,17,17-trione], for which the EC50 is above 3000 nM and the “Max. Activity” value is on record as “+ (+ is <30%)”.

Regarding `CC1(C)C[C@H]2CCNc3cccc(n3)S(=O)(=O)NC(=O)c3ccc(-n4ccc(OCCC(C5CC5)C5CC5)n4)nc3N1C2` (single isomer, unassigned) [Compound 250, 11-[3-(3,3-Dicyclopropylpropoxy)-1H-pyrazol-1-yl]-7,7-dimethyl-17λ^6-thia-2,8,10,16,22-pentaazatetracyclo[16.3.1.15,8.09,14]tricosa-1(22),9,11,13,18,20-hexaene-15,17,17-trione], the EC50 was below 1000 nM and the “Max. Activity” value is given as “++ (++ is 30-60%)”.

For the compound `CC1(C)CC2CCCNc3cccc(n3)S(=O)(=O)NC(=O)c3ccc(-n4ccc(OCC5C6(CC6)C56CC6)n4)nc3N1C2` (racemic) [Compound 105, 8-[3-({dispiro[2.0.2.1]heptan-7-yl}methoxy)-1H-pyrazol-1-yl]-12,12-dimethyl-2λ^6-thia-3,9,11,18,23-pentaazatetracyclo[17.3.1.111,14.05,10]tetracosa-1(22),5,7,9,19(23),20-hexaene-2,2,4-trione], the EC50 was below 1000 nM and the “Max. Activity” value is “+++ (+++ is >60%)”.

Regarding `CC1(C)C[C@@H]2CCCNc3nc(ccc3O)S(=O)(=O)NC(=O)c3ccc(-n4ccc(OCCCC5(C(F)(F)F)CC5)n4)nc3N1C2` [Compound 255, (14S)-20-hydroxy-12,12-dimethyl-8-(3-{3-[1-(trifluoromethyl)cyclopropyl]propoxy}-1H-pyrazol-1-yl)-2λ^6-thia-3,9,11,18,23-pentaazatetracyclo[17.3.1.111,14.05,10]tetracosa-1(22),5,7,9,19(23),20-hexaene-2,2,4-trione], the EC50 was below 1000 nM and the “Max. Activity” value is recorded as “++ (++ is 30-60%)”.

As for `CC1(C)C[C@@H]2CCCn3ccc(n3)S(=O)(=O)NC(=O)c3ccc(-n4ccc(OCCC5(C(F)(F)F)CC5)n4)nc3N1C2` [Compound 85, (18S)-20,20-dimethyl-4-(3-{2-[1-(trifluoromethyl)cyclopropyl]ethoxy}-1H-pyrazol-1-yl)-10λ^6-thia-1,3,9,14,22-pentaazatetracyclo[16.2.1.111,14.02,7]docosa-2,4,6,11(22),12-pentaene-8,10,10-trione], the half-maximal effective concentration (EC50) is below 1000 nM and the “Max. Activity” value is “+++ (+++ is >60%)”.

For the compound `CC1(C)C[C@@H]2CCCNc3cc(O)cc(n3)S(=O)(=O)NC(=O)c3ccc(-n4ccc(OCCCC5(C(F)(F)F)CC5)n4)nc3N1C2` [Compound 265, (14S)-21-Hydroxy-12,12-dimethyl-8-(3-{3-[1-(trifluoromethyl)cyclopropyl]propoxy}-1H-pyrazol-1-yl)-2λ^6-thia-3,9,11,18,23-pentaazatetracyclo[17.3.1.111,14.05,10]tetracosa-1(22),5,7,9,19(23),20-hexaene-2,2,4-trione], the EC50 is below 1000 nM and the “Max. Activity” value is “+++ (+++ is >60%)”.

`Cc1c2cnn1CCC[C@@H]1CN(c3nc(-n4ccc(OCCC5(C(F)(F)F)CC5)n4)ccc3C(=O)NS2(=O)=O)C(C)(C)C1` (single isomer, unassigned) [Compound 113]: the EC50 fell in the range of 1000 to 3000 nM and the “Max. Activity” value is “++ (++ is 30-60%)”.
